{"source": "patent US20090054403A1", "about": "“Treatment of Post-Traumatic Stress Disorder” (priority 2007, published 2009)", "system": "tissue noradrenaline and dopamine content", "assay": "Tissue catecholamines in SHR after three oral doses 12 h apart", "format": "in vivo, spontaneously hypertensive rats (SHR)", "experimental": "The activity of nepicastat at twelve selected enzymes and receptors was determined using established assays. Details of individual receptor radioligand binding assays can be found in Wong et al (1993). Binding data were analyzed by iterative curve-fitting to a four parameter logistic equation. Ki values were calculated from IC50 values using the Cheng-Prusoff equation. Enzyme inhibitory activity was expressed as IC50 (concentration required to produce 50% inhibition of enzyme activity). Male SHRs (15-16 weeks old, Charles River, Wilmington, Mass., USA) were used in the study. On the day of the study, animals were weighed and randomly assigned to be dosed with either vehicle (control) or the appropriate dose of nepicastat (3, 10, 30 or 100 mg.kg^−1, po) or (R)-5-Aminomethyl-1-(5,7-difluoro-1,2,3,4-tetrahydronaphth-2-yl)-2,3-dihydro-2-thioxo-1H-imidazole hydrochloride (30 mg.kg^−1, po) three consecutive times, twelve hours apart. At six hours after the third dose, the rats were anaesthetized with halothane, decapitated and tissues (cerebral cortex, mesenteric artery and left ventricle) were rapidly harvested, weighed, placed in iced perchloric acid (0.4 M), frozen in liquid nitrogen and stored at −70° C. until subsequent analysis. To quantify noradrenaline and dopamine concentrations, tissues were homogenized by brief sonication and centrifuged at 13,000 rpm for 30 minutes at 4° C. The supernatant, spiked with 3,4-dihydroxybenzylamine (internal standard), was assayed for noradrenaline and dopamine by HPLC using electrochemical detection.\nIn vivo biochemical studies in spontaneously hypertensive rats (SHR) and normal dogs. Mate SHR (15-16 week old, Charles River, Wilmington, Mass.) were used in the study. On the day of the study, the animals were weighed and randomly assigned to receive either placebo (vehicle) or the appropriate dose of 2a, 2b or 1. Each rat was dosed orally three times, 12 h apart, beginning in the morning. At 6 h after the third dose, the rats were anesthetized with halothane, decapitated, and the tissues (cerebral cortex, mesenteric artery and left ventricle) were rapidly harvested, weighed, placed in iced 0.4 M perchloric acid, frozen in liquid nitrogen and stored at −70° C. until analysis. Tissue NE and DA concentrations were assayed by HPLC using electrochemical detection.\nFifteen to sixteen week old male spontaneously hypertensive rats (SHR) (Charles River Labs) were allowed food and water ad libitum. Animals were weighed and randomly assigned to one of the following treatment groups: 1) distilled water vehicle (dH2O), or nepicastat at 3, 10, 30, and 100 mg/kg, 2) (R)-5-Aminomethyl-1-(5,7-difluoro-1,2,3,4-tetrahydronaphth-2-yl)-2,3-dihydro-2-thioxo-1H-imidazole hydrochloride at 30 mg/kg in distilled water, or 3) PEG 400:dH2O vehicle or RS-2643 1-000 at 30 mg/kg. Each rat was dosed orally (p.o., using a gavage needle) three times 12 hours apart, beginning in the morning. At six hours after the third dose rats were anesthetized with halothane, decapitated, and the cortex, mesenteric artery, and left ventricle were rapidly harvested, weighed, placed in iced 0.4 M perchioric acid, frozen in liquid nitrogen, and stored at −70° C. Tissue dopamine and norepinephrine concentrations were assayed by high performance liquid chromatography and electrochemical detection.\nFour series of statistical analyses were performed. The first series compared the rats treated with various doses of nepicastat, and (R)-5-Aminomethyl-1-(5,7-difluoro-1,2,3,4-tetrahydronaphth-2-yl)-2,3-dihydro-2-thioxo-1H-imidazole hydrochloride at 30 mg/kg to the vehicle control animals. A nonparametric one-way analysis of variance (ANOVA) with factor Dose and blocking factor Day was performed for each tissue and strain separately. Overall results are reported. Pairwise analysis between treated and controls at each dose were carried out using Dunnett's test to control the experiment-wise error rate. […]", "key": {"[1]": {"conditions": "100 mg/kg po x3, 6 h after third dose"}, "[2]": {"conditions": "conclusion over rat dose-response studies"}, "[3]": {"conditions": "doses of 3, 10, 30 and 100 mg/kg"}}}
{"smiles": "Cl.NCc1c[nH]c(=S)n1[C@@H]1CCc2c(F)cc(F)cc2C1", "note": "[R-enantiomer, (R)-5-Aminomethyl-1-(5,7-difluoro-1,2,3,4-tetrahydronaphth-2-yl)-2,3-dihydro-2-thioxo-1H-imidazole hydrochloride]", "values": [{"measurement": "dopamine vs vehicle, cerebral cortex", "setting": "30 mg/kg po x3", "value": "significant increase"}, {"measurement": "dopamine vs vehicle, left ventricle", "setting": "30 mg/kg po x3", "value": "significant increase"}, {"measurement": "dopamine vs vehicle, mesenteric artery", "setting": "30 mg/kg po x3", "value": "significant increase"}, {"measurement": "dopamine/norepinephrine ratio vs vehicle, cerebral cortex", "setting": "30 mg/kg po x3", "value": "no effect"}, {"measurement": "dopamine/norepinephrine ratio vs vehicle, left ventricle", "setting": "30 mg/kg po x3", "value": "significant increase"}, {"measurement": "dopamine/norepinephrine ratio vs vehicle, mesenteric artery", "setting": "30 mg/kg po x3", "value": "significant increase"}, {"measurement": "increase in DA/NE ratio, cerebral cortex", "setting": "30 mg/kg po x3", "value": 1.1, "unit": "fold"}, {"measurement": "increase in DA/NE ratio, left ventricle", "setting": "30 mg/kg po x3", "value": 3.5, "unit": "fold"}, {"measurement": "increase in DA/NE ratio, mesenteric artery", "setting": "30 mg/kg po x3", "value": 2.6, "unit": "fold"}, {"measurement": "norepinephrine vs vehicle, cerebral cortex", "setting": "30 mg/kg po x3", "value": "significant increase"}, {"measurement": "norepinephrine vs vehicle, left ventricle", "setting": "30 mg/kg po x3", "value": "did not significantly lower"}, {"measurement": "norepinephrine vs vehicle, mesenteric artery", "setting": "30 mg/kg po x3", "value": "did not significantly lower"}]}
{"smiles": "Fc1cc(F)cc(Cn2cc[nH]c2=S)c1", "note": "[SKF 102698, reference compound]", "values": [{"measurement": "dopamine vs vehicle, cerebral cortex", "setting": "30 mg/kg po x3", "value": "significantly greater (p<0.01) than vehicle"}, {"measurement": "dopamine vs vehicle, left ventricle", "setting": "30 mg/kg po x3", "value": "significantly greater (p<0.01) than vehicle"}, {"measurement": "dopamine vs vehicle, mesenteric artery", "setting": "30 mg/kg po x3", "value": "significantly greater than vehicle"}, {"measurement": "dopamine/norepinephrine ratio vs vehicle, cerebral cortex", "setting": "30 mg/kg po x3", "value": "significantly (p<0.01) greater than vehicle"}, {"measurement": "dopamine/norepinephrine ratio vs vehicle, left ventricle", "setting": "30 mg/kg po x3", "value": "significantly (p<0.05) greater than vehicle"}, {"measurement": "dopamine/norepinephrine ratio vs vehicle, mesenteric artery", "setting": "30 mg/kg po x3", "value": "significantly greater than vehicle"}, {"measurement": "increase in DA/NE ratio, cerebral cortex", "setting": "30 mg/kg po x3", "value": 2.7, "unit": "fold"}, {"measurement": "increase in DA/NE ratio, left ventricle", "setting": "30 mg/kg po x3", "value": 3.5, "unit": "fold"}, {"measurement": "increase in DA/NE ratio, mesenteric artery", "setting": "30 mg/kg po x3", "value": 5.5, "unit": "fold"}, {"measurement": "norepinephrine vs vehicle, cerebral cortex", "setting": "30 mg/kg po x3", "value": "significantly lower than vehicle"}, {"measurement": "norepinephrine vs vehicle, left ventricle", "setting": "30 mg/kg po x3", "value": "not different from vehicle"}, {"measurement": "norepinephrine vs vehicle, mesenteric artery", "setting": "30 mg/kg po x3", "value": "significantly lower than vehicle"}]}
{"smiles": "Cl.NCc1c[nH]c(=S)n1[C@H]1CCc2c(F)cc(F)cc2C1", "note": "[nepicastat, (S)-5-Aminomethyl-1-(5,7-difluoro-1,2,3,4-tetrahydronaphth-2-yl)-2,3-dihydro-2-thioxo-1H-imidazole hydrochloride]", "values": [{"measurement": "increase in DA/NE ratio, cerebral cortex", "setting": "30 mg/kg po x3", "value": 1.5, "unit": "fold"}, {"measurement": "increase in DA/NE ratio, left ventricle", "setting": "30 mg/kg po x3", "value": 7.5, "unit": "fold"}, {"measurement": "increase in DA/NE ratio, mesenteric artery", "setting": "30 mg/kg po x3", "value": 8.3, "unit": "fold"}, {"measurement": "maximal increase in DA/NE ratio, artery (mesenteric)", "setting": "100 mg/kg po x3", "value": 14, "unit": "fold"}, {"measurement": "maximal increase in DA/NE ratio, cerebral cortex", "setting": "100 mg/kg po x3", "value": 3.2, "unit": "fold"}, {"measurement": "maximal increase in DA/NE ratio, left ventricle", "setting": "100 mg/kg po x3", "value": 11, "unit": "fold"}, {"measurement": "decrease in noradrenaline, cerebral cortex", "setting": "[1]", "value": 42, "unit": "%"}, {"measurement": "decrease in noradrenaline, left ventricle", "setting": "[1]", "value": 35, "unit": "%"}, {"measurement": "decrease in noradrenaline, mesenteric artery", "setting": "[1]", "value": 47, "unit": "%"}, {"measurement": "increase in dopamine, cerebral cortex", "setting": "[1]", "value": 86, "unit": "%"}, {"measurement": "increase in dopamine, left ventricle", "setting": "[1]", "value": 800, "unit": "%"}, {"measurement": "increase in dopamine, mesenteric artery", "setting": "[1]", "value": 820, "unit": "%"}, {"measurement": "norepinephrine concentration vs vehicle, mesenteric artery", "setting": "10, 30 and 100 mg/kg", "value": "not significantly less (p>0.05) than vehicle"}, {"measurement": "dopamine/norepinephrine ratio vs vehicle, mesenteric artery", "setting": "all doses (3-100 mg/kg)", "value": "significantly (p<0.05) greater than vehicle"}, {"measurement": "in vivo potency compared with the R enantiomer", "setting": "all three tissues at 30 mg/kg", "value": "more potent than the R enantiomer"}, {"measurement": "dose inhibiting DBH in the cerebral cortex of rats", "setting": "[2]", "value": "60 to 100", "unit": "mg/kg/day"}, {"measurement": "dose inhibiting DBH in the left ventricle and mesenteric artery of rats", "setting": "[2]", "value": "1 to 6", "unit": "mg/kg/day"}, {"measurement": "dopamine concentration vs vehicle, left ventricle", "setting": "[3]", "value": "significantly (p<0.05) greater than vehicle"}, {"measurement": "dopamine concentration vs vehicle, mesenteric artery", "setting": "[3]", "value": "significantly (p<0.05) greater than vehicle"}, {"measurement": "dopamine/norepinephrine ratio vs vehicle, left ventricle", "setting": "[3]", "value": "significantly (p<0.05) greater than vehicle"}, {"measurement": "norepinephrine concentration vs vehicle, left ventricle", "setting": "doses of 10, 30 and 100 mg/kg", "value": "significantly (p<0.05) lower than vehicle"}, {"measurement": "dopamine concentration vs vehicle, cerebral cortex", "setting": "doses of 30 and 100 mg/kg", "value": "significantly (p<0.05) greater"}, {"measurement": "dopamine/norepinephrine ratio vs vehicle, cerebral cortex", "setting": "doses of 30 and 100 mg/kg", "value": "significantly (p<0.05) greater"}, {"measurement": "norepinephrine concentration vs vehicle, cerebral cortex", "setting": "doses of 30 and 100 mg/kg", "value": "significantly (p<0.05) lower"}, {"measurement": "doses at which catecholamine changes attained statistical significance (p<0.05)", "setting": "mesenteric artery and left ventricle", "value": "> 3", "unit": "mg/kg"}, {"measurement": "in vivo effectiveness compared with SKF 102698", "setting": "three doses at 30 mg/kg over 24 hours", "value": "more effective than SKF 102698 in the mesenteric artery and left ventricle, but less effective in the cerebral cortex"}]}
